Target: Angiopoietin-1 receptor (Homo sapiens, UniProt Q02763)
Assay: Homogeneous Time-Resolved Fluorescence (HTRF) Enzyme Assay
Experimental: The assay uses purified GST-Tie-2 or GST-VEGFR2 interacting with biotinylated peptide substrates. HTRF is based on the proximity of europium cryptate (donor fluorophore)-labeled antiphosphotyrosine and streptavidin labeled with APC (allophycocyanin), which have been brought together by a binding reaction. […] The IC50 values for inhibitors were determined by a four-parameter sigmoidal curve fit.

Sequence of Angiopoietin-1 receptor (Q02763 whole entry): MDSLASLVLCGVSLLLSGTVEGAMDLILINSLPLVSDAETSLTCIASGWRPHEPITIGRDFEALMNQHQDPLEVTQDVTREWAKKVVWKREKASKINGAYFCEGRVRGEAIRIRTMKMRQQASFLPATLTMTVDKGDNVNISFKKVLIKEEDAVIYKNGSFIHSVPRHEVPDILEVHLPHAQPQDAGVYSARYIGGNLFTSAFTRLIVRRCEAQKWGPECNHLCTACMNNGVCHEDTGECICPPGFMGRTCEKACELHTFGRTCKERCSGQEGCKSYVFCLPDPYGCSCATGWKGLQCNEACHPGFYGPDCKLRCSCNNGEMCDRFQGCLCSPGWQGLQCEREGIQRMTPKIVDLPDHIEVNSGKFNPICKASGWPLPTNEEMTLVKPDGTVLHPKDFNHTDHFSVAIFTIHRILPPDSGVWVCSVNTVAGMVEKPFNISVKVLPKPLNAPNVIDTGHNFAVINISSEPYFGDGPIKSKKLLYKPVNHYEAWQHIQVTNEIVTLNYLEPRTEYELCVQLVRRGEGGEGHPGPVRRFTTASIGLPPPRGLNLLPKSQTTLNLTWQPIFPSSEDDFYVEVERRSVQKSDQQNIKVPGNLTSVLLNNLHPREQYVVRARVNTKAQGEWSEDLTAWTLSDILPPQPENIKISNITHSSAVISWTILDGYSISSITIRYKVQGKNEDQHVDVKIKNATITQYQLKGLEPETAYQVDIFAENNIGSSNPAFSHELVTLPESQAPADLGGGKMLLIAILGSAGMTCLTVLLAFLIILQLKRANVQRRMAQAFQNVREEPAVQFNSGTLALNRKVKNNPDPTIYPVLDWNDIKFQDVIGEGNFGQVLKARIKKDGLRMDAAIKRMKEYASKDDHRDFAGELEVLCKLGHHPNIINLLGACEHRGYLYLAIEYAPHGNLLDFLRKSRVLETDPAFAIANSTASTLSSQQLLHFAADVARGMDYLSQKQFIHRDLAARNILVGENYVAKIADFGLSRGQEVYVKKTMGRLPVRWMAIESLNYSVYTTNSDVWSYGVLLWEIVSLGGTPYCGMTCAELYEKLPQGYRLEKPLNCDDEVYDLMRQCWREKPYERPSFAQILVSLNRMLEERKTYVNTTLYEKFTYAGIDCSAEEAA

IC50: 1300 nM
SMILES: O=C(Nc1ccc(Oc2ccc3nc(NC(=O)c4ccccc4-n4cccc4)[nH]c3c2)cc1)Nc1cc(C(F)(F)F)ccc1F [N-(6-(4-((2-Fluoro-5(trifluoromethyl)phenyl)aminocarbonylamino)phenoxy)-1H-benzimidazol-2-yl)-2-(1H-pyrrol-1-yl)benzamide]
